The subject of the test is U-937/GTB. The experiment in a line: Cytotoxicity against human U937/GTB cells by fluorometric microculture cytotoxicity assay. In kind it is functional, cell-based.

Our source for the IC50 values is ChEMBL document CHEMBL1177745, “Isolation, characterization, and bioactivity of cyclotides from the Micronesian plant Psychotria leptothyrsa” (J Nat Prod, 2010).

For the compound `CC[C@@H](C)[C@@H]1NC(=O)[C@@H]2CSSC[C@@H]3NC(=O)[C@H](C(C)C)NC(=O)[C@H](CCCCN)NC(=O)[C@H](CC(N)=O)NC(=O)[C@@H](CCCCN)NC(=O)[C@@H]4CSSC[C@H](NC(=O)[C@H](CO)NC(=O)[C@H](CCC(=O)O)NC(=O)CNC(=O)[C@H](CSSC[C@H](NC(=O)CNC(=O)[C@H](CC(C)C)NC(=O)[C@H](C(C)C)NC(=O)[C@H](CO)NC(=O)[C@H](CO)NC1=O)C(=O)N[C@@H](CO)C(=O)N4)NC(=O)[C@@H]1CCCN1C(=O)[C@H]([C@H](C)CC)NC(=O)[C@H](C(C)C)NC(=O)CNC(=O)[C@H](CC(=O)O)NC(=O)[C@H](CCCNC(=N)N)NC(=O)[C@H](Cc1ccc(O)cc1)NC3=O)C(=O)N[C@@H](C(C)C)C(=O)N[C@@H](Cc1ccccc1)C(=O)N[C@@H]([C@@H](C)CC)C(=O)N1CCC[C@H]1C(=O)N2`, half-maximal inhibition (IC50) required 3.5 µM.
Next, `CC[C@H](C)[C@@H]1NC(=O)CNC(=O)[C@@H](CC(N)=O)NC(=O)[C@H](Cc2ccccc2)NC(=O)[C@H](Cc2ccc(O)cc2)NC(=O)[C@@H]2CSSC[C@@H]3NC(=O)CNC(=O)[C@H](CC(C)C)NC(=O)[C@H](Cc4ccccc4)NC(=O)[C@H](C(C)C)NC(=O)[C@H]4CSSC[C@H](NC(=O)[C@H](CO)NC(=O)[C@H](CSSC[C@H](NC(=O)[C@H](C)NC1=O)C(=O)NCC(=O)N[C@@H](CCC(=O)O)C(=O)N[C@@H](CO)C(=O)N4)NC(=O)CNC(=O)[C@@H]1CCCN1C(=O)[C@H]([C@@H](C)CC)NC(=O)[C@H](Cc1ccccc1)NC3=O)C(=O)N[C@@H](CCCCN)C(=O)N[C@@H](CO)C(=O)N[C@@H](CCCCN)C(=O)N[C@@H](C(C)C)C(=O)N2` [PSYLE A]: 26 µM.
